# Measurements as given in ChEMBL document CHEMBL4004890, “RITA Mimics: Synthesis and Mechanistic Evaluation of Asymmetric Linked Trithiazoles” (2017).
# Calls of active or inactive are those of the source. No cut-off for these calls is given here.
# Assays:
# [1] = system: HCT-116; experiment: Growth inhibition of human HCT116 cells at 10 uM after 24 hrs by CCK8 assay relative to control; assay type: functional
# [2] = system: CCRF-CEM; experiment: Antiproliferative activity against human CCRF-CEM cells; assay type: functional
# [3] = system: K562; experiment: Antiproliferative activity against human K562 cells; assay type: functional
# [4] = system: HCT-116; experiment: Antiproliferative activity against human HCT116 cells; assay type: functional
# [5] = system: HCT-116; experiment: Upregulation of p53 expression in human HCT116 cells at 1 uM at 6 hrs post dose by chemiluminescent immunoblotting; assay type: functional, cell-based
# [6] = system: HCT-116; experiment: Down regulation of c-Myc expression in human HCT116 cells at 10 uM after 6 to 24 hrs by chemiluminescent immunoblotting; assay type: functional, cell-based
# [7] = system: HCT-116; experiment: Growth inhibition of human HCT116 cells after 24 hrs by CCK8 assay; assay type: functional; settings: HCT-116, 24 h
# [8] = system: HCT-116; experiment: Down regulation of c-Myc expression in human HCT116 cells at 1 uM after 12 to 24 hrs by chemiluminescent immunoblotting; assay type: functional, cell-based
# [9] = system: HCT-116; experiment: Induction of apoptosis in human HCT116 cells at 10 uM after 24 hrs by Annexin-V-FITC/7AAD staining based flow cytometry; assay type: functional, cell-based
# [10] = system: HCT-116; experiment: Induction of apoptosis in human HCT116 cells at 1 uM after 24 hrs by Annexin-V-FITC/7AAD staining based flow cytometry; assay type: functional, cell-based
# [11] = system: HCT-116; experiment: Down regulation of c-Myc expression in human HCT116 cells at 1 uM after 6 hrs by chemiluminescent immunoblotting; assay type: functional, cell-based
# [12] = system: HCT-116; experiment: Down regulation of Mcl-1 expression in human HCT116 cells at 1 to 10 uM after 6 to 24 hrs by chemiluminescent immunoblotting; assay type: functional, cell-based
# [13] = system: HCT-116; experiment: Upregulation of p53 expression in human HCT116 cells at 10 uM at 12 hrs post dose by chemiluminescent immunoblotting; assay type: functional, cell-based
smiles,measurement,setting,value
CC(C)(C)OC(=O)N[C@@H](Cc1ccccc1)c1nc(-c2nc(-c3nc(C(N)=O)cs3)cs2)cs1,growth inhibition (GI),[1],inactive
CCOC(=O)c1csc(-c2csc(-c3csc([C@@H](N)Cc4ccccc4)n3)n2)n1,growth inhibition (GI),[1],inactive
CC(C)(C)OC(=O)N1Cc2ccccc2C[C@H]1c1nc(-c2nc(-c3nc(C(N)=O)cs3)cs2)cs1,growth inhibition (GI),[1],inactive
CCOC(=O)c1csc(-c2csc(-c3csc([C@H](N)Cc4ccccc4)n3)n2)n1,growth inhibition (GI),[1],inactive
CN[C@@H](C)C(=O)N[C@H](C(=O)N1CCC[C@H]1c1nc(C(=O)c2ccc(F)cc2)cs1)C1CCCCC1 [LCL-161],GI50,[2],250 nM
CCOC(=O)c1csc(-c2csc(-c3csc([C@@H]4Cc5ccccc5CN4C(=O)OC(C)(C)C)n3)n2)n1,growth inhibition (GI),[1],inactive
Cc1nc(Nc2ncc(C(=O)Nc3c(C)cccc3Cl)s2)cc(N2CCN(CCO)CC2)n1 [DASATINIB],GI50,[3],< 1 nM
CC(C)(C)OC(=O)N[C@H](Cc1ccccc1)c1nc(-c2nc(-c3nc(C(N)=O)cs3)cs2)cs1,growth inhibition (GI),[1],inactive
CCOC(=O)c1csc(-c2csc(-c3csc([C@H](Cc4ccccc4)NC(=O)OC(C)(C)C)n3)n2)n1,growth inhibition (GI),[1],inactive
OCc1ccc(-c2ccc(-c3ccc(CO)s3)o2)s1,GI50,[4],110 nM
same,Activity,[5],Active
same,Activity,[6],Active
same,GI50,[7],800 nM
same,Activity,[8],inactive
same,Activity,[9],Active
same,Activity,[10],Active
same,Activity,[11],Active
same,Activity,[12],Active
same,Activity,[13],Active
